Data on 4 molecules can be found in article PMC4947906, “Two fatty acyl reductases involved in moth pheromone biosynthesis” (Scientific Reports, 2016).

One test deals with T1, SexpgFAR I (Spodoptera exigua, UniProt A0A0F6NS86).
T1 construct: gene pgFARI; pYES2.1/V5-His TOPO in S. cerevisiae INVSc1
T1 sequence (A0A0F6NS86 1-459): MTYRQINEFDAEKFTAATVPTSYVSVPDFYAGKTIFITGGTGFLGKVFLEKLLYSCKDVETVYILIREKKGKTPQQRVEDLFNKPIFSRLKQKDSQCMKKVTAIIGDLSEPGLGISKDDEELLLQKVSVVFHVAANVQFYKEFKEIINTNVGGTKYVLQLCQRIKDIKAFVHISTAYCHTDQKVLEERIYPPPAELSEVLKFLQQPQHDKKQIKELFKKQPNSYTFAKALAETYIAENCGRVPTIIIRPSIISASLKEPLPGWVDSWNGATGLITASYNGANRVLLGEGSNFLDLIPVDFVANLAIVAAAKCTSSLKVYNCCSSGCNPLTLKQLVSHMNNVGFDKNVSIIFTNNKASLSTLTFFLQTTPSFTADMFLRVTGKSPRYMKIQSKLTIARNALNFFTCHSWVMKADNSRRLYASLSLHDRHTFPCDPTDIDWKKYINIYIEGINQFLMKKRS
As to the kind of experiment: yeast expression, fatty alcohol by GC-MS. The format is cell-based. The conditions noted are these: fed as methyl ester 0.5 mM, 48 h, 30 °C, the acyl-CoA itself was not added.

A further test concerns the target T2, SexpgFAR II (Spodoptera exigua, UniProt A0A0P0IV71).
T2 construct: gene pgFARII; pYES2.1/V5-His TOPO in S. cerevisiae INVSc1
T2 sequence (A0A0P0IV71 1-454): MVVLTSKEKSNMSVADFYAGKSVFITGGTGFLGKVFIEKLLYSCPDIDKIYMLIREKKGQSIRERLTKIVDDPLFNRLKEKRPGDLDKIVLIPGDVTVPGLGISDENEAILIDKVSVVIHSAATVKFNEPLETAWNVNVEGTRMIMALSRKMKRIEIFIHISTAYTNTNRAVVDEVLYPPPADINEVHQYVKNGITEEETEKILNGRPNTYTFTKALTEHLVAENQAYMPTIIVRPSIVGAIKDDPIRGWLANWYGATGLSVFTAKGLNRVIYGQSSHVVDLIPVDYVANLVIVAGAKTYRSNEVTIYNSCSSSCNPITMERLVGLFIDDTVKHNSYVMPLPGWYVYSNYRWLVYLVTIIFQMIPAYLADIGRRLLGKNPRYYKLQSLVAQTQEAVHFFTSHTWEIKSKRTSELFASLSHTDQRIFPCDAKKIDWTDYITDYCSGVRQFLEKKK
As to the kind of experiment: yeast expression, fatty alcohol by GC-MS. The format is cell-based. The conditions noted are these: fed as methyl ester 0.5 mM, 48 h, 30 °C; the acyl-CoA itself was not added.

With `CCCCCCCCCCCCCCCC(=O)SCCNC(=O)CCNC(=O)[C@H](O)C(C)(C)COP(=O)(O)OP(=O)(O)OC[C@H]1O[C@@H](n2cnc3c(N)ncnc32)[C@H](O)[C@@H]1OP(=O)(O)O` [C16:Acyl], the “yeast expression, fatty alcohol by GC-MS” value at SexpgFAR I (also endogenous C16 acyl of yeast) was “SexpgFAR I-transformed yeast cells produced a significantly higher quantity of C16 fatty alcohol”. Consider `CCCC/C=C\CCCCCCCC(=O)OC` [Z9-14:acyl], for which, on SexpgFAR II, the “yeast expression, fatty alcohol by GC-MS” value is “SexpgFAR II exhibits specificity for Z9-14:acid and Z9E12-14:acid precursors”.

For `C/C=C/C/C=C\CCCCCCCC(=O)OC` [Z9E12-14:acyl], the “yeast expression, fatty alcohol by GC-MS” value at SexpgFAR II was “SexpgFAR II exhibits specificity for Z9-14:acid and Z9E12-14:acid precursors”. In the case of `CCCC/C=C\CCCCCCCCCC(=O)OC` [Z11-16:acyl], the “yeast expression, fatty alcohol by GC-MS” value at SexpgFAR I is “SexpgFAR I produced significantly more Z11-16:OH than SexpgFAR II”.
